Test results from paper PMC11724075, “Small-molecule-induced ERBB4 activation to treat heart failure” (Nature Communications, 2025).
Several values for one entry are separate records, joined by “and”; a condition that tells them apart may be missing. Equal entries are not always repeated.

Legend:
ERBB2/ERBB4 = target: T1, ERBB2/ERBB4 (Homo sapiens, UniProt Q15303); experiment: PathHunter U2OS ERBB2/ERBB4 dimerization assay; format: cell-based; settings: for ERBB4/ERBB2 dimerization signal: relative to signal with 0.1 µM NRG1, single biological replicates
T1 construct: host or cells: U2OS (osteosarcoma cells), PathHunter engineered line
T1 sequence (Q15303 26-1308): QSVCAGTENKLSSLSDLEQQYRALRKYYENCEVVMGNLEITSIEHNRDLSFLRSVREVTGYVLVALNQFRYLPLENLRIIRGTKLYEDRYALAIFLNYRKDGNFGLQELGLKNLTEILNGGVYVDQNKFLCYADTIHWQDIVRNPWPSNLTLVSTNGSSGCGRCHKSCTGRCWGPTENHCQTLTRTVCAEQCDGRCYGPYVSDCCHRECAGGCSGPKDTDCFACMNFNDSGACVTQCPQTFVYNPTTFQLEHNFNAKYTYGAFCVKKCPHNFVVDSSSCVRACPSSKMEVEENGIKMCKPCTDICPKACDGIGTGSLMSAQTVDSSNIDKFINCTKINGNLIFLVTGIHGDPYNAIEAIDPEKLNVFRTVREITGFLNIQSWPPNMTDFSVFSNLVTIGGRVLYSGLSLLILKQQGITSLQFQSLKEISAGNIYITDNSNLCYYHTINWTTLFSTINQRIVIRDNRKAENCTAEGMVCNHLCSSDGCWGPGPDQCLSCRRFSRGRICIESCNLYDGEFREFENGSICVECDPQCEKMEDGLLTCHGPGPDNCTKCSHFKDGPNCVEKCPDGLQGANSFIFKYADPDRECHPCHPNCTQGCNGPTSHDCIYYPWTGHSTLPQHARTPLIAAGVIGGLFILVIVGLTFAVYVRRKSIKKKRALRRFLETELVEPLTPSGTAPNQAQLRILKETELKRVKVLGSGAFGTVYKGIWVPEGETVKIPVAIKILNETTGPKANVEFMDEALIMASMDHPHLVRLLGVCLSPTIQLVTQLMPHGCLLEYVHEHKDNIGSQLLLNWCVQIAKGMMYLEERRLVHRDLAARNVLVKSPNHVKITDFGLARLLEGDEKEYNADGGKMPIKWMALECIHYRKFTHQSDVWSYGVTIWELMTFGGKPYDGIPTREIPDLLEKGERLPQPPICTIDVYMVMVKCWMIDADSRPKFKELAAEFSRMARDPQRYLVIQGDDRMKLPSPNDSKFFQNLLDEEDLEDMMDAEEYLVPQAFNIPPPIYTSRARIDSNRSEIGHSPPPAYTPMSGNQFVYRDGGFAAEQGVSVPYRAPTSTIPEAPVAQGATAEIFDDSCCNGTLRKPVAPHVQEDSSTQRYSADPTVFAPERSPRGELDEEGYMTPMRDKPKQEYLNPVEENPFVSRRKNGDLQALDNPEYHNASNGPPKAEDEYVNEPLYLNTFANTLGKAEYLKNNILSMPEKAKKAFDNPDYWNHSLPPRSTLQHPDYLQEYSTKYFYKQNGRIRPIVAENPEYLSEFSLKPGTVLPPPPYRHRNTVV
T1 sequence (P04626 23-1255 partner): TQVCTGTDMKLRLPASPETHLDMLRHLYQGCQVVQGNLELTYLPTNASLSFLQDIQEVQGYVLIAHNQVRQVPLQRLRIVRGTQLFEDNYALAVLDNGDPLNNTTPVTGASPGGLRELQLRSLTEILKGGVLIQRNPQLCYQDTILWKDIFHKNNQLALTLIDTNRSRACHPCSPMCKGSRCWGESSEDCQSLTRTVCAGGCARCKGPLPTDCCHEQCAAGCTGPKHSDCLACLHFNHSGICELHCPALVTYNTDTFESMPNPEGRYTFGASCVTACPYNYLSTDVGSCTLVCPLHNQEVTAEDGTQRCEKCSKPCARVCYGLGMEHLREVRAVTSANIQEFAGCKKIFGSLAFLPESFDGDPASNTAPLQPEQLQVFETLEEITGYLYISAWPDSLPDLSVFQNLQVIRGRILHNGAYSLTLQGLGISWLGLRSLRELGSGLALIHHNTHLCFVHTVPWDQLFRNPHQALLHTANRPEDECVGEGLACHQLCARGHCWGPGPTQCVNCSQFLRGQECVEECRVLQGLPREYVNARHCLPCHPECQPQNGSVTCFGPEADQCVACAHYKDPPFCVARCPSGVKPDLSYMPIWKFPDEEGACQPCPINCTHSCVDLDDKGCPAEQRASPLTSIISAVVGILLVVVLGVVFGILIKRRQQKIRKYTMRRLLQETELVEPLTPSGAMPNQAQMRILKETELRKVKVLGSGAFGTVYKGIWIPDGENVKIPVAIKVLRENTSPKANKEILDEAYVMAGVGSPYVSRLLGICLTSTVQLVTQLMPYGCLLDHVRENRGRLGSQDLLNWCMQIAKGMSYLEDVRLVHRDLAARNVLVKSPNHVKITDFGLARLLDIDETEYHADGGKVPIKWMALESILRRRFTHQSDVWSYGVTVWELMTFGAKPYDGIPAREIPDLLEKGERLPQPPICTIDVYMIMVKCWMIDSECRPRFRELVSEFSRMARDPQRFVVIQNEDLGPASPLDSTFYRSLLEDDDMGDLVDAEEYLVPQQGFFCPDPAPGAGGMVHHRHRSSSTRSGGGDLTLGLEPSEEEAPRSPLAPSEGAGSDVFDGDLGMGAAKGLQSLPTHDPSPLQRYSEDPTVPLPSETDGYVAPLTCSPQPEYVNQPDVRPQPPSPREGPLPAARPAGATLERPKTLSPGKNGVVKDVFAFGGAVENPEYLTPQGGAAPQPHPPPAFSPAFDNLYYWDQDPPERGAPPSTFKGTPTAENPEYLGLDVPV
Method: PathHunter U2OS ERBB4/ERBB4 (osteosarcoma cells; Eurofins, 93-0961C3), U2OS ERBB2/ERBB4 (osteosarcoma cells; Eurofins, 493-0960C3), ERBB2/ERBB3 (osteosarcoma cells; Eurofins, 93-1042C3) and ERBB1/ERBB1 (osteosarcoma cells; Eurofins, 93-0989C3) dimerization cell lines were cultured according to the manufacturer’s instructions. Briefly, cells were cultured in Cell Culture Reagent 103 (Eurofins, 92-3103 G) supplemented with 250 µg/mL Hygromycin B (Eurofins, 92-0029) and 500 µg/mL G418 (Eurofins, 92-0030), and were maintained at 37 °C in humidified atmosphere of 5% CO2. HCFs (Innoprot, P10454) were cultured in fibroblast medium (Innoprot, P60108) supplemented with 10% (v/v) fetal bovine serum (FBS, Innoprot), 10% (v/v) fibroblast growth supplement (Innoprot), and 1% (v/v) penicillin/streptomycin solution (Innoprot). iAMs[33] (kindly provided by LUMC) were cultured in Advanced DMEM F-12 (Thermo Fisher Scientific, 12634028) supplemented with 2% (v/v) heat-inactivated FBS (Thermo Fisher Scientific, 10270106), 1% (v/v) penicillin/streptomycin (10,000 units/mL and 10 mg/mL respectively, Thermo Fisher Scientific, 15140122), 1× GlutaMAX (Thermo Fisher Scientific, 35050061), and 100 ng/mL doxycycline (Tocris, 4090) for proliferation. To induce differentiation, iAMs were transferred to medium without doxycycline.
U2OS ERBB4/ERBB4 dimerization cells were seeded at a density of 5 × 10^4 cells/well in 100 µL Cell Plating 0 Reagent, in white 96-well plates (PerkinElmer, 6005680) and incubated for 24 h at 37 °C, 5% CO2. […] Next, 110 µL PathHunter Flash Detection Reagent was added to each well and incubated at RT for 1 h after which the luminescence signal was measured using the Luminoskan Ascent (Thermo Fisher Scientific). […] The same experimental set-up was used for the U2OS ERBB2/ERBB4, U2OS ERBB2/ERBB3 and U2OS ERBB1/ERBB1 dimerization cell lines.

Erbb4-null mice = experiment: AngII-induced myocardial fibrosis in Erbb4-null mice, Masson's trichrome fibrosis; format: in vivo, mouse; set-up: Perivascular fibrosis: dose or concentration left out as unconfirmed
Method: Four weeks after implantation, cardiac ultrasound was performed, mice were euthanized, and hearts were collected. A similar set-up was used for the 1-week study (Alzet, model 1007D) in male mice (n = 9-10 mice in every group).
Floxed Erbb4 mice (Erbb4^f/f; C57BL/6N; 129-Erbb4tm1Fej/Mmucd, MMRRC, #010439-UCD) were crossed with CAGGCre-ER^TM mice (Jackson Laboratory, 004682) containing the Tg(CAG-cre/Esr1*)5Amc transgene that expresses Cre recombinase under the control of a chicken beta actin promoter/enhancer coupled to the human cytomegalovirus immediate-early gene enhancer, resulting in expression of tamoxifen-inducible Cre-ERT in most cell types. To induce Cre recombinase-mediated deletion of Erbb4, eleven-week-old female and male iCAGGCre-ER^TM/Erbb4^f/f mice were intraperitoneally injected with tamoxifen (Merck, T5648; 10 mg/kg; in corn oil) daily for 5 consecutive days.
Hearts were fixed in 4% PFA, paraffin-embedded, and cut into 5-µm sections. Images were acquired with an Olympus BX43 microscope (Olympus Stream Motion Software) or a CELENA® S Digital Imaging System and analyzed with ImageJ 2.14.0 software. Collagen distribution was visualized by Masson’s trichrome staining. Cardiac total fibrosis was expressed as the ratio of positively stained fibrotic area (blue) to the total area and perivascular fibrosis as the ratio of fibrotic area to vascular lumen area. Scar size was determined by measuring the scar length over the […]. Hypertrophy and vascularisation were visualized via an isolectin-B4/WGA/DAPI staining. Quantification was performed by a person blinded to the treatment protocol.

iAMs = experiment: Bulk RNA sequencing of cardiomyogenically differentiated iAMs; format: cell-based, rat; settings: EF-1 32 µM, 16 h, log2-fold change ≥0.58, P adj <0.05
Method: iAMs were seeded at a density of 6 ×10^6 cells/mL in differentiation medium in 75-cm^2 cell culture flasks (Greiner Bio-One, 658175) and incubated for 9 days (d0 = day of seeding). HCF were seeded at a density of 3 × 10^6 cells/mL in fibroblast medium in 75-cm^2 cell culture flasks. […] Next, cells were lysed using 350 µL buffer RLT (Qiagen) supplemented with β-mercaptoethanol (100:1; Merck, 444203). Total RNA was isolated using the RNeasy Micro Kit (Qiagen, 74104) according to the manufacturer’s protocol, with an extra step of DNase digestion. The concentration and quality of RNA were determined using a Qubit fluorometer (Thermo Fisher Scientific) and 2100 Agilent BioAnalyzer (Agilent Technologies), respectively. Samples with an RNA integrity number >7 were used for library preparation. Sequencing libraries were prepared by Genewiz/Azenta (Leipzig) on cDNA prepared from polyadenylated mRNA. Libraries were sequenced using a NovaSeq 6000 (Illumina) with a read length of 2 ×150 bp.
Gene expression was quantified at the transcript level using Salmon (v1.10.0)[60], with the validatMappings and -gcBias parameters switched on, to the Rnor_6.0 or GRCh38 transcriptome. […] Functional enrichment of DEGs was determined using a hypergeometric test against the Gene Ontology database by using the ClueGO (v2.5.7)[64] module of Cytoscape (v3.9.1)[65] with Benjamini–Hochberg adjusted (FDR) P < 0.05. […]

[1] = tested on: Akt phosphorylation (pAkt/Akt); set-up: method as in PMID 14654373; settings: cited from earlier work

Compound | EC50 (ERBB2/ERBB4) [µM] | ERBB4/ERBB2 dimerization signal (ERBB2/ERBB4; 3.125e-8 M) | ERBB4/ERBB2 dimerization signal (ERBB2/ERBB4; 6.25e-8 M) | ERBB4/ERBB2 dimerization signal (ERBB2/ERBB4; 1.25e-7 M) | ERBB4/ERBB2 dimerization signal (ERBB2/ERBB4; 2.5e-7 M) | ERBB4/ERBB2 dimerization signal (ERBB2/ERBB4; 5e-7 M) | ERBB4/ERBB2 dimerization signal (ERBB2/ERBB4; 1e-6 M) | ERBB4/ERBB2 dimerization signal (ERBB2/ERBB4; 2e-6 M) | ERBB4/ERBB2 dimerization signal (ERBB2/ERBB4; 4e-6 M) | ERBB4/ERBB2 dimerization signal (ERBB2/ERBB4; 8e-6 M) | ERBB4/ERBB2 dimerization signal (ERBB2/ERBB4; 1.6e-5 M) | ERBB4/ERBB2 dimerization signal (ERBB2/ERBB4; 3.2e-5 M) | efficacy in ERBB2/ERBB4 dimerization assay at the highest concentration (in words) (ERBB2/ERBB4; highest concentration) | Total fibrosis (Erbb4-null mice; male+female Erbb4-null mice, AngII/EF-1, AngII 400 ng/kg/day, single animals) | Perivascular fibrosis (Erbb4-null mice; male+female Erbb4-null mice, AngII/EF-1, single animals) | effect on AngII-induced interstitial or perivascular fibrosis in Erbb4-null mice (in words) (Erbb4-null mice; mouse, in vivo) | number of significantly downregulated genes compared to Veh (iAMs) | number of significantly upregulated genes compared to Veh (iAMs) | time of peak NRG1-induced Akt phosphorylation [1] [min]
O=C(NC1CC1)C(Sc1nc2ccccc2c(=O)n1C1CCCC1)c1ccccc1 (stereo not shown) [EF-1] | > 32 | 0 | 10.52 and 1.76 and 3.95 and -0.62 and 8.84 and 32.1 and -4.84 and 13.1 | 11.16 and 1.7 and 0.22 and 2.37 and 10.84 and 42.31 and 0.8 and 15.8 | 14.28 and 2.37 and -0.2 and 2.18 and 11.16 and 44.62 and 2.21 and 32.89 | 15.8 and 3.34 and -0.84 and 2.5 and 14.03 and 46.76 and 10.28 and 38.19 | 17.47 and 6.72 and 2.79 and 5.79 and 18.63 and 53.25 and 13.21 and 49.02 | 23.23 and 10.36 and 6.17 and 10.55 and 22.36 and 58.49 and 25.9 and 62.1 | 39.65 and 19.88 and 18.63 and 20.82 and 41.51 and 62.22 and 30.3 and 62.16 | 43.57 and 23.14 and 20.33 and 27.19 and 40.97 and 69.15 and 32.21 and 63.74 | 49.69 and 37.91 and 30.09 and 36.81 and 54.68 and 124.7 and 60.3 and 94.64 | 99.26 and 72.09 and 64.59 and 71.61 and 99.65 and 139.93 and 119.85 and 114.61 | like the natural ligand NRG1 | 3.25 and 2.45 and 2.12 and 2.92 and 4.07 | 0.6515 and 1.352 and 0.6814 and 0.7388 and 1.066 | did not significantly prevent interstitial or perivascular AngII-induced fibrosis | 1120 | 354 | –
neuregulin-1 [NRG1] | – | – | – | – | – | – | – | – | – | – | – | – | – | – | – | – | – | – | 15
